Test results: ChEMBL document CHEMBL4431300 (Medchemcomm, 2016)
In brackets after ≈: the same amount, converted by molar mass. Activity calls are given as the source filed them. No cut-off for these calls is given here.

Columns and labels:
[1] = Antiproliferative activity against human A2780cis cells after 72 hrs at 37 degC by MTT assay; format: functional, cell-based
Homo sapiens = species: Homo sapiens; experiment: Antimigratory activity against human ECRF24 cells assessed as wound closure at 6 to 50 uM after 7 hrs by wound healing assay; format: functional, cell-based
A2780 [2] = experiment: Antiproliferative activity against human A2780 cells after 72 hrs at 37 degC by MTT assay; format: functional, cell-based; details: A2780, 72 h
[3] = Antiproliferative activity against immortalized human ECRF24 cells after 72 hrs at 37 degC by CellTiter-Glo luminescence assay; format: functional; details: ECRF24, 72 h
Chorioallantoic membrane [4] = experiment: (§1) Antiangiogenic activity in chicken fertilized egg chorioallantoic membrane assessed as avascular zone by measuring reduction in number of branching points at 55 ug/kg/day, iv administered as bolus dose on embryo development day 11 for 3 days by epifluorescence microscopic analysis relative to control; format: functional; details: Gallus gallus
Chorioallantoic membrane [5] = experiment: (§2) Antiangiogenic activity in chicken fertilized egg chorioallantoic membrane assessed as inhibition vascular sprout formation at 97 ug/kg/day, iv administered as single bolus dose 1 min post 5 Jcm'-2 light irradiation on embryo development day 11 measured 24 hrs post dose by epifluorescence microscopic analysis; format: functional, organism-based; details: Gallus gallus
Chorioallantoic membrane [6] = experiment: as §2, with “inhibition of” for “inhibition”, “487” for “97”; format: functional, organism-based; details: Gallus gallus
HEK293 = experiment: Antiproliferative activity against HEK293 cells after 72 hrs at 37 degC by CellTiter-Glo luminescence assay; format: cell-based; details: Homo sapiens, HEK293, 72 h
A2780 [7] = experiment: Antitumor activity against human A2780 cells implanted in chicken fertilized egg chorioallantoic membrane assessed as tumor growth inhibition at 487 ug/kg/day, iv administered as bolus dose on embryo development day 11 for 3 days measured up to 8 days post treatment relative to control; format: functional; details: Gallus gallus, read-out: TGI
A2780 [8] = experiment: Antitumor activity against human A2780 cells implanted in chicken fertilized egg chorioallantoic membrane assessed as tumor growth inhibition at 64 ug/kg/day, iv administered as bolus dose on embryo development day 11 for 3 days measured up to 8 days post treatment relative to control; format: functional; details: Gallus gallus, read-out: TGI
Chorioallantoic membrane [9] = experiment: as §2, with “inhibition of” for “inhibition”, “435” for “97”; format: functional, organism-based; details: Gallus gallus
Chorioallantoic membrane [10] = experiment: as §1, with “36” for “55”; format: functional; details: Gallus gallus
A2780 [11] = experiment: Antitumor activity against human A2780 cells implanted in chicken fertilized egg chorioallantoic membrane assessed as tumor growth inhibition at 435 ug/kg/day, iv administered as bolus dose on embryo development day 11 for 3 days measured up to 8 days post treatment relative to control; format: functional; details: Gallus gallus, read-out: TGI
Chorioallantoic membrane [12] = experiment: as §2, with “inhibition of” for “inhibition”, “64” for “97”; format: functional, organism-based; details: Gallus gallus
Chorioallantoic membrane [13] = experiment: as §1, with “49” for “55”; format: functional; details: Gallus gallus
[14] = Antiproliferative activity against embryonic stem cells in intact mouse embryoid bodies; format: functional, cell-based
Chorioallantoic membrane [15] = experiment: as §1, with “20” for “55”; format: functional; details: Gallus gallus

Structure (SMILES) | IC50 [1] | Activity (Homo sapiens) | IC50 (A2780 [2]) | IC50 [3] | inhibition in vivo at 0.055 mg/kg/day (Chorioallantoic membrane [4]) | inhibition (Chorioallantoic membrane [5]) | inhibition (Chorioallantoic membrane [6]) | IC50 (HEK293) | inhibition in vivo at 0.487 mg/kg/day (A2780 [7]) | inhibition in vivo at 0.064 mg/kg/day (A2780 [8]) | inhibition (Chorioallantoic membrane [9]) | inhibition in vivo at 0.036 mg/kg/day (Chorioallantoic membrane [10]) | inhibition in vivo at 0.435 mg/kg/day (A2780 [11]) | inhibition (Chorioallantoic membrane [12]) | inhibition in vivo at 0.049 mg/kg/day (Chorioallantoic membrane [13]) | IC50 [14] | inhibition in vivo at 0.02 mg/kg/day (Chorioallantoic membrane [15])
O=C(CCCc1ccc(N(CCCl)CCCl)cc1)OCCC(F)(F)C(F)(F)C(F)(F)C(F)(F)C(F)(F)C(F)(F)C(F)(F)C(F)(F)C(F)(F)C(F)(F)F | > 200 µM | inactive | > 200 µM | 66 µM | 59% | inactive | inactive | > 200 µM | 70% |  |  |  |  |  |  |  | 
CCCCCCCCCCCCCCCCCCOC(=O)CCCc1ccc(N(CCCl)CCCl)cc1 | > 200 µM | inactive | > 200 µM | 89 µM |  |  |  | > 200 µM |  | 53% | inactive | 20% | 49.5% | Active |  |  | 
O=C(CCCc1ccc(N(CCCl)CCCl)cc1)OCCC(F)(F)C(F)(F)C(F)(F)C(F)(F)C(F)(F)C(F)(F)C(F)(F)C(F)(F)F | 25 µM |  | 38 µM | 52 µM |  |  |  | 57 µM |  |  |  |  |  |  | 29% |  | 
O=C(O)CCCc1ccc(N(CCCl)CCCl)cc1 [CHLORAMBUCIL] | 43 µM |  | 12 µM | 8 µM |  |  |  | 25 µM |  |  |  |  |  |  |  | 1.25 µg/mL (≈ 4.11 µM) | 33%
